Reference: US11186564B2, “Dual NAV1.2/5HT2a inhibitors for treating CNS disorders” (Sunovion Pharmaceuticals Inc., priority 2016, dated 2021)
Where two headings read alike, the source gives them in different places.

Target: T1, recombinant human serotonin receptor 5-HT2A (Homo sapiens, UniProt P28223)
T1 construct: expressed in transfected cells; method B: loaded with Ca2+ dye
Assay: 5-HT2A antagonist Ca2+ assay in CHO-K1 cells (method A aequorin luminescence / method B FLIPR fluorescence)
Format: cell-based
Settings: antagonist mode vs EC80 of reference agonist, method A or B
Excerpt: The methods utilized to assess the inhibitory activity of compounds on recombinant human serotonin receptor 5-HT2A was based upon previously published approaches [Jerman J C, Brough S J, Gager T, Wood M, Coldwell M C, Smart D, Middlemiss D N. Pharmacological characterisation of human 5-HT2 receptor subtypes. European Journal of Pharmacology 2001 Feb. 23; 414(1):23-30; Le Poul E, Hisada S, Mizuguchi Y, Dupriez V J, Burgeon E, Detheux M. Adaptation of aequorin functional assay to high throughput screening. J Biomolecular Screening 2002 February; 7(1):57-65.] The 5-HT2A receptor signals through Gq-phospholipase signaling cascade, which leads to a transient increase in free intracellular […] concentration. Both 5-HT2A assay methods rely upon monitoring these changes in Ca^2+ concentration.
In method A [Le Poul E, Hisada S, Mizuguchi Y, Dupriez V J, Burgeon E, Detheux M. (2002)], CHO-K1 cells engineered to stably co-express both recombinant human 5-HT2A and mitochondrial apoaequorin are used. […] For agonist testing, 50 microliters of cell suspension is mixed with 50 microliters of a solution containing test compound or reference agonist in a 96-well standard geometry microtiter plate. The resulting emission of light was recorded using a Hamamatsu Functional Drug Screening System 6000 (FDSS 6000) luminometer. For antagonist testing, 100 microliters of the solution of reference agonist (to yield an agonist concentration, EC80, sufficient to cause the cells to generate an 80% maximal luminescence response in the absence of any antagonist) is injected into the mix of cells and test compound, 15 minutes after the first injection. The resulting emission of light is recorded using Hamamatsu FDSS 6000 luminometer. IC50 values are calculated (from compound concentration dependent inhibition of agonist-induced 5-HT2A-dependent light emission) by non-linear least squares regression of the data (percent inhibition) onto equation (1) above.
In method B [Jerman J C, Brough S J, Gager T, Wood M, Coldwell M C, Smart D, Middlemiss D N. (2001)], CHO-K1 cells which had been engineered to stably co-express recombinant human 5-HT2A are used in assay done similarly to method A. In method B, the cells are loaded with a fluorogenic Ca^2+ indicator dye by pre-incubation. Addition of the reference agonist serotonin causes a transient increase in fluorescence in a suspension of the loaded cells, which can be detected using the Molecular Devices fluorometric imaging plate reader (FLIPR), a high-throughput platform for 96-well cell-based assays. Addition of test compounds that are 5-HT2A antagonists, prior to the addition of the agonist (to yield an agonist concentration, EC80, sufficient to cause the cells to generate an 80% maximal fluorescence response in the absence of any antagonist), reduces the amount of fluorescence detected by the FLIPR upon agonist addition. IC50 values are calculated (from compound concentration dependent inhibition of agonist-induced 5-HT2A-dependent fluorescence) by non-linear least squares regression of the data (percent inhibition) onto equation (1) above.

T1 sequence (P28223 whole entry): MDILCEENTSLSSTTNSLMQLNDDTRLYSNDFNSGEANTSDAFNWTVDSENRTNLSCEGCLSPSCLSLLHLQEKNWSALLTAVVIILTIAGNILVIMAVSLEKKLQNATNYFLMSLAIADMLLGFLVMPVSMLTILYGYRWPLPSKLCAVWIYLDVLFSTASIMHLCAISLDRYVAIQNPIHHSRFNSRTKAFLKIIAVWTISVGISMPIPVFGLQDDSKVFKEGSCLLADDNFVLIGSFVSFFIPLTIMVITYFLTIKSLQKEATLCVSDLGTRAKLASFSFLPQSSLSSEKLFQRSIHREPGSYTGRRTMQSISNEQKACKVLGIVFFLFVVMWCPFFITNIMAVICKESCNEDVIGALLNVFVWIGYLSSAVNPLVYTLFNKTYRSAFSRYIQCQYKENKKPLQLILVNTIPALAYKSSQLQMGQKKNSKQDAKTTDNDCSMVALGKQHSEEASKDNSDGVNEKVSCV

| SMILES | IC50 (read-out: 5HT2A IC50) | IC50 (5HT2A IC50, μM) |
| --- | --- | --- |
| OC(COC1CCCCC1)CN1CCC2(CCCN(c3ccccc3)C2)C1 (centres unmarked) [Example 351, 1-(cyclohexyloxy)-3-(7-phenyl-2,7-diazaspiro[4.5]decan-2-yl)propan-2-ol] | > 16.7 µM | – |
| Fc1ccc(O[C@@H]2CCCN(CC3COCc4ccccc43)C2)cc1 (stereo partly drawn) [Example 260, (3R)-3-(4-fluorophenoxy)-1-(isochroman-4-ylmethyl)piperidine] | 1.81 µM | – |
| Fc1ccc(OC2CCCN(CC3Cc4cccnc4C3)CC2)cc1 (centres unmarked) [Example 273, 6-((4-(4-fluorophenoxy)azepan-1-yl)methyl)-6,7-dihydro-5H-cyclopenta[b]pyridine] | 0.02 µM | – |
| COc1ccccc1O[C@H]1CCN(CCC2CCOc3ccccc32)[C@@H](C)C1 (stereo partly drawn) [Example 181, (2S,4S)-1-(2-(chroman-4-yl)ethyl)-4-(2-methoxyphenoxy)-2-methylpiperidine] | > 10 µM | – |
| O[C@H](COC1CCCCC1)CN1CC[C@@H]2C[C@H]1CN2c1ccccc1 [Example 326, (S)-1-(cyclohexyloxy)-3-((1S,5R)-6-phenyl-2,6-diazabicyclo[3.2.1]octan-2-yl)propan-2-ol] | > 3.16 µM | – |
| COc1cccc(CN2CCC3(CCN(c4ccccc4)C3)C2)c1 (centres unmarked) [Example 343, 2-(3-methoxybenzyl)-7-phenyl-2,7-diazaspiro[4.4]nonane] | 2.46 µM | – |
| COc1ccc2c(c1)C(CN1CCC(Oc3ccc(C#N)cc3)CC1)CC2 (centres unmarked) [Example 120, 4-((1-((6-methoxy-2,3-dihydro-1H-inden-1-yl)methyl)piperidin-4-yl)oxy)benzonitrile] | 0.44 µM | – |
| CC1Cc2ccccc2C(=O)N1CCN1CCC(Oc2cccc(Cl)c2)CC1 (centres unmarked) [Example 198, 2-(2-(4-(3-chlorophenoxy)piperidin-1-yl)ethyl)-3-methyl-3,4-dihydroisoquinolin-1(2H)-one] | 0.41 µM | – |
| O=C1c2ccccc2CCN1CCN1CC[C@H](Oc2ccccn2)C1 [Example 16, (S)-2-(2-(3-(pyridin-2-yloxy)pyrrolidin-1-yl)ethyl)-3,4-dihydroisoquinolin-1(2H)-one] | 1.85 µM | – |
| COc1ccccc1OC1CCN(CC2CCc3ccccc32)CC1 (centres unmarked) [Example 105, 1-((2,3-dihydro-1H-inden-1-yl)methyl)-4-(2-methoxyphenoxy)piperidine] | 0.43 µM | – |
| COc1cccc(COC2CCN(CC3CCc4ccc(OC)cc43)CC2)c1 (centres unmarked) [Example 245, 1-((6-methoxy-2,3-dihydro-1H-inden-1-yl)methyl)-4-((3-methoxybenzyl)oxy)piperidine] | 0.41 µM | – |
| COc1ccccc1OC1CCN(CC2(C)Cc3ccccc3C2)CC1 [Example 146, 4-(2-methoxyphenoxy)-1-((2-methyl-2,3-dihydro-1H-inden-2-yl)methyl)piperidine] | > 1 µM | – |
| COc1ccccc1N1CCC2(CCN(CC3CCc4cccnc43)C2)C1 (centres unmarked) [Example 336, 2-((6,7-dihydro-5H-cyclopenta[b]pyridin-7-yl)methyl)-7-(2-methoxyphenyl)-2,7-diazaspiro[4.4]nonane] | 3.28 µM | – |
| N#Cc1ccc(OC2CCN(CC3Cc4cccnc4C3)CC2)cc1 (centres unmarked) [Example 156, 4-((1-((6,7-dihydro-5H-cyclopenta[b]pyridin-6-yl)methyl)piperidin-4-yl)oxy) benzonitrile] | 2.01 µM | – |
| O=C1c2ccccc2CCN1CCN1CC[C@@H](Oc2ccncc2)C1 [Example 29, (R)-2-(2-(3-(pyridin-4-yloxy)pyrrolidin-1-yl)ethyl)-3,4-dihydroisoquinolin-1(2H)-one] | > 16.7 µM | – |
| COc1cccc(O[C@@H]2CCN(CC(O)CO[C@@H]3CCc4ccccc43)C2)c1 (stereo partly drawn) [Example 40, 1-(((R)-2,3-dihydro-1H-inden-1-yl)oxy)-3-((R)-3-(3-methoxyphenoxy)pyrrolidin-1-yl)propan-2-ol] | 1.6 µM | – |

| SMILES | IC50 (read-out: 5HT2A IC50) | IC50 (5HT2A IC50, μM) |
| --- | --- | --- |
| COc1ccc2c(c1)C(CN1C[C@H]3CC[C@@H]1CN3c1ccccc1)CC2 (single isomer, unassigned) [Compound 313] | > 10 µM | – |
| COc1ccccc1O[C@@H]1CCN(CCN2CCc3ccccc3C2=O)C1 [Example 13, (R)-2-(2-(3-(2-methoxyphenoxy)pyrrolidin-1-yl)ethyl)-3,4-dihydroisoquinolin-1(2H)-one] | 1.93 µM | – |
| O=C1c2ccccc2CCN1CCN1CCC[C@H](Oc2ccc(F)cc2)C1 [Example 265, (S)-2-(2-(3-(4-fluorophenoxy)piperidin-1-yl)ethyl)-3,4-dihydroisoquinolin-1(2H)-one] | > 13.1 µM | – |
| COc1ccc2c(c1)[C@@H](CN1C[C@@H]3CC[C@H]1CN3c1ccccc1)CC2 (single isomer, unassigned) [Compound 311] | 0.01 µM | – |
| O[C@@H](COC1CCCCC1)CN1CCC(Oc2ccccc2)CC1 [Example 234, (R)-1-(cyclohexyloxy)-3-(4-phenoxypiperidin-1-yl)propan-2-ol] | 0.03 µM | – |
| O[C@@H](COC1CCCCC1)CN1CCC[C@H](Oc2ccc(F)cc2)C1 [Example 269, (R)-1-(cyclohexyloxy)-3-((S)-3-(4-fluorophenoxy)piperidin-1-yl)propan-2-ol] | 2.17 µM | – |
| C[C@H]1C[C@]2(CCc3ccccc3O2)CCN1CCN1CCc2ccccc2C1=O [Example 425, 2-(2-((2S,2′S)-2′-methylspiro[chromane-2,4′-piperidin]-1′-yl)ethyl)-3,4-dihydroisoquinolin-1(2H)-one] | 0.12 µM | – |
| OC(CO[C@@H]1CCc2ccccc21)CN1CC[C@H](Oc2cccc(F)c2)C1 (stereo partly drawn) [Example 37, 1-(((R)-2,3-dihydro-1H-inden-1-yl)oxy)-3-((S)-3-(3-fluorophenoxy)pyrrolidin-1-yl)propan-2-ol] | 9.01 µM | – |
| Cc1cccc(N2CCN(CC3CCOc4ccccc43)CC2)c1C (centres unmarked) [Example 59, 1-(chroman-4-ylmethyl)-4-(2,3-dimethylphenyl)piperazine] | 0.8 µM | – |
| COc1ccc2c(c1)C(CN1CCC(OCc3cccnc3)CC1)CC2 (centres unmarked) [Example 246, 3-(((1-((6-methoxy-2,3-dihydro-1H-inden-1-yl)methyl)piperidin-4-yl)oxy)methyl)pyridine] | 0.98 µM | – |
| O[C@@H](COC1CCCCC1)CN1[C@@H]2CC[C@H]1CN(c1ccc(F)cc1)C2 [Example 290, (R)-1-(cyclohexyloxy)-3-((1R,5S)-3-(4-fluorophenyl)-3,8-diazabicyclo[3.2.1]octan-8-yl)propan-2-ol] | – | 0.002 µM |
| COc1cccc(O[C@@H]2CCN(CCN3CCc4ccccc4C3=O)C2)c1 [Example 21, (R)-2-(2-(3-(3-methoxyphenoxy)pyrrolidin-1-yl)ethyl)-3,4-dihydroisoquinolin-1(2H)-one] | 2.56 µM | – |
| O[C@H](COC1CCCCC1)CN1C[C@H]2CC[C@@H](C1)N2c1ccccc1 [Example 300, (S)-1-(cyclohexyloxy)-3-((1R,5S)-8-phenyl-3,8-diazabicyclo[3.2.1]octan-3-yl)propan-2-ol] | > 10 µM | – |
| Fc1ccc(N2CCC3(CCN(CC4Cc5ccncc5C4)C3)C2)cc1 (centres unmarked) [Example 341, 2-((6,7-dihydro-5H-cyclopenta[c]pyridin-6-yl)methyl)-7-(4-fluorophenyl)-2,7-diazaspiro[4.4]nonane] | 3.12 µM | – |
| COc1cccc(O[C@H]2CCN(CC(O)CO[C@H]3CCc4ccccc43)C2)c1 (stereo partly drawn) [Example 39, 1-(((S)-2,3-dihydro-1H-inden-1-yl)oxy)-3-((S)-3-(3-methoxyphenoxy)pyrrolidin-1-yl)propan-2-ol] | 4.3 µM | – |
| COc1ccc2c(c1)C(CN1CCC(Oc3cccc(C#N)c3)CC1)CC2 (centres unmarked) [Example 110, 3-((1-((6-methoxy-2,3-dihydro-1H-inden-1-yl)methyl)piperidin-4-yl)oxy)benzonitrile] | 4.04 µM | – |
